Experimental data taken from PubChem BioAssay (NCI).
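Compound exposure: 48 hours, 5 concentrations, 96-well plates. Definition used: TGI = concentration required for complete inhibition of growth.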

Experiments:
Assay in all cases: inhibition of tumour cell growth, NCI panel, 48 h
786-0 renal = tested on: 786-0 renal
A498 renal = tested on: A498 renal
A549 NSCLC = tested on: A549 NSCLC
ACHN renal = tested on: ACHN renal
BT-549 breast = tested on: BT-549 breast
CAKI-1 renal = tested on: CAKI-1 renal
CCRF-CEM leukemia = tested on: CCRF-CEM leukemia
DU-145 prostate = tested on: DU-145 prostate
EKVX NSCLC = tested on: EKVX NSCLC
HCC-2998 colon = tested on: HCC-2998 colon
HCT-116 colon = tested on: HCT-116 colon
HCT-15 colon = tested on: HCT-15 colon
HL-60(TB) leukemia = tested on: HL-60(TB) leukemia
HOP-92 NSCLC = tested on: HOP-92 NSCLC
HS 578T breast = tested on: HS 578T breast
HT29 colon = tested on: HT29 colon
IGROV1 ovarian = tested on: IGROV1 ovarian
K-562 leukemia = tested on: K-562 leukemia
KM12 colon = tested on: KM12 colon
M14 melanoma = tested on: M14 melanoma
MALME-3M melanoma = tested on: MALME-3M melanoma
MCF7 breast = tested on: MCF7 breast
MDA-MB-231 breast = tested on: MDA-MB-231 breast
MDA-MB-435 = tested on: MDA-MB-435
MDA-N = tested on: MDA-N
MOLT-4 leukemia = tested on: MOLT-4 leukemia
NCI-H226 lung = tested on: NCI-H226 lung
NCI-H23 lung = tested on: NCI-H23 lung
NCI-H460 lung = tested on: NCI-H460 lung
NCI-H522 lung = tested on: NCI-H522 lung
NCI/ADR-RES ovarian = tested on: NCI/ADR-RES ovarian
OVCAR-3 ovarian = tested on: OVCAR-3 ovarian
OVCAR-4 ovarian = tested on: OVCAR-4 ovarian
OVCAR-5 ovarian = tested on: OVCAR-5 ovarian
OVCAR-8 ovarian = tested on: OVCAR-8 ovarian
PC-3 prostate = tested on: PC-3 prostate
RPMI-8226 leukemia = tested on: RPMI-8226 leukemia
RXF 393 renal = tested on: RXF 393 renal
SF-268 CNS = tested on: SF-268 CNS
SF-295 CNS = tested on: SF-295 CNS
SF-539 CNS = tested on: SF-539 CNS
SK-MEL-2 melanoma = tested on: SK-MEL-2 melanoma
SK-MEL-28 melanoma = tested on: SK-MEL-28 melanoma
SK-MEL-5 melanoma = tested on: SK-MEL-5 melanoma
SK-OV-3 ovarian = tested on: SK-OV-3 ovarian
SN12C renal = tested on: SN12C renal
SNB-19 CNS = tested on: SNB-19 CNS
SNB-75 CNS = tested on: SNB-75 CNS
SR leukemia = tested on: SR leukemia
SW-620 colon = tested on: SW-620 colon
T-47D breast = tested on: T-47D breast
TK-10 renal = tested on: TK-10 renal
U251 CNS = tested on: U251 CNS
UACC-257 melanoma = tested on: UACC-257 melanoma
UACC-62 melanoma = tested on: UACC-62 melanoma
UO-31 renal = tested on: UO-31 renal
COLO 205 colon = tested on: COLO 205 colon
HOP-62 NSCLC = tested on: HOP-62 NSCLC
LOX IMVI melanoma = tested on: LOX IMVI melanoma

Measured: TGI

Cc1cc(C)c2c(c1)CC1(Cc3c(ccc(C)c3C)C1=O)C2=O (stereo unspecified)
not listed: COLO 205 colon | HOP-62 NSCLC | LOX IMVI melanoma
> 100 µM: all other assays above

Cc1n[nH]c(=O)n1/N=C/c1ccc([N+](=O)[O-])cc1
not listed: IGROV1 ovarian | M14 melanoma | SK-OV-3 ovarian | SNB-19 CNS
> 100 µM: all other assays above

Cc1ccc(NC(=O)c2cc(S(=O)(=O)Nc3n[nH]c(=O)n3-c3ccccc3)c(S)cc2Cl)cc1
not listed: ACHN renal | CCRF-CEM leukemia | SF-295 CNS | HOP-62 NSCLC
> 100 µM: all other assays above
